# Laboratory results published in patent US7045320B2, “Methods for producing L-amino acids” (priority 2001, dated 2006).
# pKi: −log10 of the molar value.
# Legend:
# Type in all cases: biochemical
# [1] = biological target: T1, Wild type trpE anthranilate synthase (Escherichia coli, UniProt P00895); experiment: Ki value of anthranilate synthase (AS) to L-tryptophan, wild type
# T1 construct: endogenous in cells
# Method: (§1) Following the culture for 24–48 hours at 37° C., 5-methyltryptophan resistant clones were seeded on the aforementioned agar medium. In order to examine properties of the obtained mutant strain, Ki value of AS to L-tryptophan was measured (Bauerle R. et al., Methods in Enzymology, 142, pp.366–386, 1987). As a result, the mutant strains could be classified into two classes. The class 1 mutant strains had feedback resistant anthranilate synthase. […] The AS genes of these mutant strains were cloned and their nucleotide sequences were determined. Chromosomal DNA of each mutant strain was isolated and digested with restriction enzymes NheI and ClaI to isolate a fragment of about 5 kb, and this fragment was ligated with the NheI/ClaI fragment (4158 bp) of pBR322.
# (§2) E. coli KB 862 (trpE) (DSM7196) was transformed with the ligation reaction product. A clone that could grow on a minimal medium not containing L-tryptophan was selected. All the plasmids complementing the trpE mutation contained the NheI/ClaI fragment of 5 kb. Further, this 5 kb NheI/ClaI fragment contained trpE, trpD, a sequence about 0.8 kb upstream from trpE, and a sequence about 1 kb downstream from trpD. Differences in amino acid sequences of mutant AS encoded by plasmids (pE0, pE5, pE6, pE8) contained in the mutant strains and their Ki values are shown in Table 1.
# [2] = biological target: T2, TrpE0 mutant anthranilate synthase (Escherichia coli, UniProt P00895, K50E); experiment: Ki value of anthranilate synthase (AS) to L-tryptophan, TrpE0
# T2 construct: endogenous in cells; host or cells: 5-methyltryptophan-resistant mutant of E. coli K12 YMC9 (gene later cloned as pE0)
# T2 sequence (P00904 2-531): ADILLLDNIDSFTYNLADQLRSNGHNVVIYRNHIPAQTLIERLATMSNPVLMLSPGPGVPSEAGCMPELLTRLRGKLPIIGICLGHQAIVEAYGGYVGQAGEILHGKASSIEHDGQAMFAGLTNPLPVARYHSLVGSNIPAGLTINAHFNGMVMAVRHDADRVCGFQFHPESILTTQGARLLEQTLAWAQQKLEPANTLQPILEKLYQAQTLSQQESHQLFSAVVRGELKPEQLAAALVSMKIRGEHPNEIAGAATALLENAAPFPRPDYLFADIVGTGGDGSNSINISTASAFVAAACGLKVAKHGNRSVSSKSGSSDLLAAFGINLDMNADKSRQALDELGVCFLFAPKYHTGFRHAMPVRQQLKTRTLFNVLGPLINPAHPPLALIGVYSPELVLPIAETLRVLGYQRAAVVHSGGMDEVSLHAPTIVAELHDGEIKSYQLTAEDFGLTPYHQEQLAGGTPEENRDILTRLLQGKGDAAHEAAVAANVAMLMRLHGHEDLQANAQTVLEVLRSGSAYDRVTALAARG
# T2 sequence (P00895 whole entry K50E): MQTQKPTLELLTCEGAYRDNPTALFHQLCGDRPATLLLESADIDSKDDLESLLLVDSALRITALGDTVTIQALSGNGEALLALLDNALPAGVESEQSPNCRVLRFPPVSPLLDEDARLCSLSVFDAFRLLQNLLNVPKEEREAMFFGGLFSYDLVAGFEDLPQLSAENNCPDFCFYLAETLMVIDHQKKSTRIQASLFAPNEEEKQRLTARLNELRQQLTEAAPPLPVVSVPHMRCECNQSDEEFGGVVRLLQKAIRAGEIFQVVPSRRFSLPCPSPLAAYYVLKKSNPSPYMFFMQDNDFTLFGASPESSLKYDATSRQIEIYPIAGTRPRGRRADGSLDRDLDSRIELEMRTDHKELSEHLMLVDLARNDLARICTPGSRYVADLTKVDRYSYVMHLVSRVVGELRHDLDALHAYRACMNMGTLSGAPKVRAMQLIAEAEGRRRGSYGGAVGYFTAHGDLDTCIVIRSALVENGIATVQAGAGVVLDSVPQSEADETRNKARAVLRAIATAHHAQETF
# Method: as §1, §2
# [3] = biological target: T3, TrpE5 mutant anthranilate synthase (Escherichia coli, UniProt P00895, P21S); experiment: Ki value of anthranilate synthase (AS) to L-tryptophan, TrpE5
# T3 construct: endogenous in cells; host or cells: 5-methyltryptophan-resistant mutant of E. coli K12 YMC9 (gene later cloned as pE5)
# T3 sequence (P00904 2-531): as the sequence (P00904 2-531) above
# T3 sequence (P00895 whole entry P21S): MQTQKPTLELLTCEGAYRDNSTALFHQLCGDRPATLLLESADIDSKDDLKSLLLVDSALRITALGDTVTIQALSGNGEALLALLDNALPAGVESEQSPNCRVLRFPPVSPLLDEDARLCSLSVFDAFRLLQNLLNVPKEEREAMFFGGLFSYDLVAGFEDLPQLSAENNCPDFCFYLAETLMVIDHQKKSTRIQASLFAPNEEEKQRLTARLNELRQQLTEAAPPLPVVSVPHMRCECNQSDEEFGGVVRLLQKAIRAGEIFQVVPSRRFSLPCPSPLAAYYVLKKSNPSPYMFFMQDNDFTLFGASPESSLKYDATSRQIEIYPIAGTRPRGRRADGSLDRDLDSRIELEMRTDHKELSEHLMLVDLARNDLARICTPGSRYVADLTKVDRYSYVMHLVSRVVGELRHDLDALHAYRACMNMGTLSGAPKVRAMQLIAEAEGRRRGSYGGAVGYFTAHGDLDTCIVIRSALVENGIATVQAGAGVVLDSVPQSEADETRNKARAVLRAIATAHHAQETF
# Method: as §1, §2
# [4] = biological target: T4, TrpE6 mutant anthranilate synthase (Escherichia coli, UniProt P00895, K50E/S40F); experiment: Ki value of anthranilate synthase (AS) to L-tryptophan, TrpE6
# T4 construct: endogenous in cells; host or cells: 5-methyltryptophan-resistant mutant of E. coli K12 YMC9 (gene later cloned as pE6)
# T4 sequence (P00895 whole entry S40F/K50E): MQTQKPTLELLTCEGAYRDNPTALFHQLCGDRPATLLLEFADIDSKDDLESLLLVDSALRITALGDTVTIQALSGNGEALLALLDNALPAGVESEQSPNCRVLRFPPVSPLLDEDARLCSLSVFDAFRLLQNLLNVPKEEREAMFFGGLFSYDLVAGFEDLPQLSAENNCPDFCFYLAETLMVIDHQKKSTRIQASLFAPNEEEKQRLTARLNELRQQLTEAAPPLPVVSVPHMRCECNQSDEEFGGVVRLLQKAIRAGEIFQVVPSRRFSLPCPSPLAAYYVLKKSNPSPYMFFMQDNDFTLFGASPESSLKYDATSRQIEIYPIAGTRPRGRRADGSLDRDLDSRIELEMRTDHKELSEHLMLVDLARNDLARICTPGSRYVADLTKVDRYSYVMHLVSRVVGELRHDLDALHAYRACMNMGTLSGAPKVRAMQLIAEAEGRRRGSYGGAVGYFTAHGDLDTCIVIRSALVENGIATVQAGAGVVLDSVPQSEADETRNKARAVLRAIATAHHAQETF
# T4 sequence (P00904 2-531, further chain): as the sequence (P00904 2-531) above
# Method: as §1, §2
# T1 sequence (P00904 2-531): as above
# T1 sequence (P00895 whole entry): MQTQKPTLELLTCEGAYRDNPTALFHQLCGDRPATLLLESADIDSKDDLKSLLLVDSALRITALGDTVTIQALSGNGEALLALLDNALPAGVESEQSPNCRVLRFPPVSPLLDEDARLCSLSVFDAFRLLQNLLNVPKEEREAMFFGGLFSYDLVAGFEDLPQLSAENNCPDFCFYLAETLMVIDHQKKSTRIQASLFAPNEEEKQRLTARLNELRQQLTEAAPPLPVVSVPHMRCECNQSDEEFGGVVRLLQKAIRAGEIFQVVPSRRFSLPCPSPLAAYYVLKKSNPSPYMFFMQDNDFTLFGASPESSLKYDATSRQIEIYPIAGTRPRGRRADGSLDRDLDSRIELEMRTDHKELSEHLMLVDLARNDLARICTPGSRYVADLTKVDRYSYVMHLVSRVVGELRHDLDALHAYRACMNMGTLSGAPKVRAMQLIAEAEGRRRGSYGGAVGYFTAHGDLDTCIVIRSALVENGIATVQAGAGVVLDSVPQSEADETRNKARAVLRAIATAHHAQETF
smiles,measurement,setting,value
N[C@@H](Cc1c[nH]c2ccccc12)C(=O)O [L-tryptophan],pKi,[1],5.00
same,pKi,[2],4.00
same,pKi,[3],2.52
same,pKi,[4],< 1.82
